Source: ChEMBL document CHEMBL5303711, “ECBD screening data for assay EOS300108” (2023)
Counter-ions that a name gives are not always drawn. The source made the active and inactive calls. The rule behind the calls is not given here.

Test: Cytotoxicity activity against human HepG2 cells assessed by CellTiter-Glo luminescent cell viability assay.
Assay type: toxicity, cell-based
Parameters: assay stage confirmatory assay, source tissue liver
Conditions: HepG2 cells, read-out: IC50 relative

Structure (SMILES): CN1CCC2(CC1)CN(S(=O)(=O)c1ccc(Cl)s1)Cc1ccccc1O2
- CC50: 9.7 µM (active)

Structure (SMILES): CCCCCCCCC(=O)N[C@H](CN1CCCC1)[C@H](O)c1ccc2c(c1)OCCO2
- CC50: 5.1 µM (active)

Structure (SMILES): CN([C@H]1CCN(c2ccccc2F)C1=O)S(=O)(=O)c1cccc2cnccc12
- CC50: 4.3 µM (active)

Structure (SMILES): CC(C)NC(=O)N1CC(Oc2ccc(-c3noc(C4CCOCC4)n3)cc2)C1
- CC50: 4.1 µM (active)

Structure (SMILES): CN(C)CCCN1c2ccccc2CCc2ccc(Cl)cc21 [CLOMIPRAMINE HYDROCHLORIDE]
- CC50: 6.5 µM (active)

Structure (SMILES): CCc1cc(N2CCC(NC(=O)N3CCN(c4cccnn4)CC3)CC2)ncn1
- CC50: 16.3 µM (inactive)

Structure (SMILES): Cc1cc(O)c(-c2ccc([C@@H](C)CN)cc2)c2c1[nH]c(=O)c1sccc12
- CC50: 0.1 µM (active)

Structure (SMILES): CCCCc1ccc(-c2cnn3cccnc23)cc1
- CC50: 8.3 µM (inactive)

Structure (SMILES): Cn1c(NC(=O)c2cccc3cc[nH]c23)nc2ccccc21
- CC50: 2.3 µM (active)

Structure (SMILES): N#Cc1c(C2CCNCC2)cc(-c2c(O)cccc2OCC2CC2)nc1N
- CC50: 5.6 µM (active)

Structure (SMILES): CCNc1cc(C)nc(Nc2ccc(NC(=O)CC(C)C)cc2)n1
- CC50: 11 µM (active)

Structure (SMILES): Cc1cc(-c2cc(O)ccc2Cl)cc2nnc(Nc3ccc(OCCN4CCCC4)cc3)nc12
- CC50: 1.4 µM (active)

Structure (SMILES): CN(C)c1ccc(C(=C2C=CC(=[N+](C)C)C=C2)c2ccc(N(C)C)cc2)cc1 [GENTIAN VIOLET]
- CC50: 14.6 µM (inactive)

Structure (SMILES): COc1ccc(-c2cc(C(=O)N3CCCCC3C)n[nH]2)cc1S(=O)(=O)N1CCCCC1 (configuration not stated)
- CC50: 20.2 µM (inactive)

Structure (SMILES): O=S1(=O)CCCN1c1ccc(CNc2ncnc3ccccc23)cc1F
- CC50: 2.2 µM (active)

Structure (SMILES): COc1ccc(CNc2nccn(-c3ccc4c(c3)OCO4)c2=O)cc1OC
- CC50: 9.1 µM (inactive)

Structure (SMILES): C=CC(=O)Nc1cccc(Oc2nc(Nc3ccc(N4CCN(C)CC4)cc3OC)ncc2Cl)c1
- CC50: 2.2 µM (active)

Structure (SMILES): COc1cc2c(cc1F)CN(Cc1cnc3ccccn13)CC2
- CC50: 2 µM (active)

Structure (SMILES): COc1cc(Nc2c(C#N)cnc3cc(OCCCN4CCN(C)CC4)c(OC)cc23)c(Cl)cc1Cl [BOSUTINIB]
- CC50: 1.8 µM (active)

Structure (SMILES): CCOCc1ccc(O)c2ncccc12
- CC50: 5.6 µM (active)

Structure (SMILES): COc1cccc2c1C(=O)c1c(O)c3c(c(O)c1C2=O)C[C@@](O)(C(C)=O)C[C@@H]3O[C@H]1C[C@H](N)[C@H](O)[C@H](C)O1 [DAUNORUBICIN HYDROCHLORIDE]
- CC50: 0.3 µM (active)

Structure (SMILES): Cc1ncc(-c2ccnc(Nc3ccc(S(C)(=O)=O)cc3)n2)n1C(C)C [AZD-5438]
- CC50: 0.6 µM (active)

Structure (SMILES): Cn1nc(C(=O)Nc2ccc(Oc3ccc(F)cc3)cn2)ccc1=O
- CC50: 6.7 µM (active)

Structure (SMILES): CCOc1ccc(NC(=O)c2nc(S(C)(=O)=O)ncc2Br)cc1
- CC50: 1.6 µM (active)

Structure (SMILES): Cc1nccn1-c1ccc(NC(=O)c2cccc(OC(C)C)n2)cn1
- CC50: 6.5 µM (active)

Structure (SMILES): Cc1ccc(C(=O)N(CCCN)C(c2oc3cc(Cl)ccc3c(=O)c2Cc2ccccc2)C(C)C)cc1 (configuration not stated)
- CC50: 1.4 µM (active)

Structure (SMILES): CC(=O)N1CCSc2ccc(S(=O)(=O)N3CCN(Cc4ccc5c(c4)OCO5)CC3)cc21
- CC50: 6.4 µM (active)

Structure (SMILES): CCN(C(=O)c1ccco1)c1nc2ccccc2s1
- CC50: 0.9 µM (active)

Structure (SMILES): COc1ccc(NS(=O)(=O)c2ccc3onc(C(=O)N4CCCC4)c3c2)cc1OC
- CC50: 0.6 µM (active)

Structure (SMILES): Cn1nc(-c2ccc(C(F)(F)F)cc2)nc2c(=O)n(C)c(=O)nc1-2
- CC50: 1.1 µM (active)

Structure (SMILES): Cc1cc(Nc2nc(N[C@@H](C)c3ccc(F)cc3)c(C#N)cc2F)n[nH]1
- CC50: 2.7 µM (active)

Structure (SMILES): CCCNC(=O)N1CC(Oc2ccc(-c3noc(C4CCOCC4)n3)cc2)C1
- CC50: 3.7 µM (active)

Structure (SMILES): CCN(CC)CCCC(C)Nc1c2ccc(Cl)cc2nc2ccc(OC)cc12 (configuration not stated) [QUINACRINE DIHYDROCHLORIDE]
- CC50: 1.1 µM (active)

Structure (SMILES): CCN1CCN(CCCNC(=O)c2cccc(NC(=O)c3nnc(COc4ccccc4)s3)c2)CC1
- CC50: 6.9 µM (active)

Structure (SMILES): FC(F)c1nc2ccccc2n1-c1nc(N2CCOCC2)nc(N2CCOCC2)n1 [ZSTK-474]
- CC50: 1.2 µM (active)

Structure (SMILES): C#CCOC1CCN(C(=O)c2ccc(F)c(Br)c2)CC1
- CC50: 8.6 µM (active)

Structure (SMILES): O=C(Nc1nc(-c2ccccc2)cs1)C1CCN(S(=O)(=O)c2cccnc2)CC1
- CC50: 6 µM (active)

Structure (SMILES): COc1ccc(OC)c(C(O)CN2CCN(c3cccc(C)c3C)CC2)c1 (configuration not stated)
- CC50: 9.9 µM (active)

Structure (SMILES): CS(=O)(=O)N1CCc2ccc(NC(=O)Nc3ccc(Cl)cc3)cc21
- CC50: 3.9 µM (inactive)

Structure (SMILES): Cc1ccc(CC(=O)N2CCN(C(=O)[C@@H]3CCCCO3)CC2)cc1
- CC50: 0.6 µM (active)

Structure (SMILES): CC(C(=O)NCCN(C)C)C1CCN(C(=O)c2cc3cc(Cl)ccc3[nH]2)CC1 (configuration not stated)
- CC50: 6.3 µM (active)

Structure (SMILES): C[C@@H]1CCCN1CCc1cc2cc(-c3ccc(C#N)cc3)ccc2o1
- CC50: 6.1 µM (active)

Structure (SMILES): CCCN1C(=O)COc2ccc(-c3csc(NC(=O)CC(C)C)n3)cc21
- CC50: 18 µM (inactive)

Structure (SMILES): O=c1cc(N2CCOCC2)oc2c(-c3cccc4c3sc3ccccc34)cccc12
- CC50: 7.1 µM (active)

Structure (SMILES): CNCCCC12CCC(c3ccccc31)c1ccccc12 [MAPROTILINE HYDROCHLORIDE]
- CC50: 4.7 µM (active)

Structure (SMILES): CCCCn1c(=O)c(C(=O)Nc2ccc(O)cc2)c(O)c2ccccc21
- CC50: 23 µM (inactive)

Structure (SMILES): CC(C)(C#N)c1ccc(N2C(=O)OCc3cnc4ccc(-c5cnc6ccccc6c5)cc4c32)cc1
- CC50: 7 µM (active)

Structure (SMILES): Cc1ccc(C)c(-c2cc(C(F)(F)F)nn2-c2ccc(S(N)(=O)=O)cc2)c1 [DIMETHYL CELECOXIB]
- CC50: 18.1 µM (inactive)

Structure (SMILES): C#Cc1cccc(Nc2ncnc3cc(OCCOC)c(OCCOC)cc23)c1 [ERLOTINIB HYDROCHLORIDE]
- CC50: 3.4 µM (inactive)

Structure (SMILES): Cn1c(=O)c2ccc(C(=O)Nc3nc(-c4ccco4)cs3)nc2n(C)c1=O
- CC50: 10.5 µM (inactive)

Structure (SMILES): CCn1c(Cn2ncc(Cl)c(Cl)c2=O)nc2cc(F)ccc21
- CC50: 3 µM (active)

Structure (SMILES): COc1ccc(OC)c(S(=O)(=O)Nc2ccc3nc(S(C)(=O)=O)sc3c2)c1
- CC50: 6.9 µM (active)

Structure (SMILES): CCN1CCN(c2cc3c(cc2S(=O)(=O)N2CCCCCC2)C(=O)Nc2ccccc2O3)CC1
- CC50: 10.9 µM (active)

Structure (SMILES): CNCCC(Oc1ccc(C(F)(F)F)cc1)c1ccccc1 (configuration not stated) [FLUOXETINE HYDROCHLORIDE]
- CC50: 6.6 µM (active)

Structure (SMILES): Nc1nc(N)c2nc(CNc3ccc(C(=O)N[C@@H](CCC(=O)O)C(=O)O)cc3)cnc2n1 [AMINOPTERIN]
- CC50: 0.1 µM (active)

Structure (SMILES): CN(C)CCOc1ccc2ccccc2c1Br
- CC50: 12 µM (active)

Structure (SMILES): CCC(=O)Nc1ccc(C(=O)Cn2ncc(Cl)c(Cl)c2=O)cc1
- CC50: 3.3 µM (active)

Structure (SMILES): CC1=CCN(C[C@H](O)COc2ccc3c(c2)OCO3)CC1
- CC50: 13.5 µM (inactive)

Structure (SMILES): NC(=O)c1cnc2[nH]ccc2c1N[C@@H]1[C@@H]2C[C@@H]3C[C@H]1C[C@@](O)(C3)C2
- CC50: 8 µM (active)

Structure (SMILES): O=C(Cc1ccc(-n2cccn2)cc1)Nc1nccs1
- CC50: 0.6 µM (active)

Structure (SMILES): C[C@@H]1NC(C(=O)Nc2ccnc3ccnn23)=NN(c2ccccc2)C1=O
- CC50: 13.2 µM (active)

Structure (SMILES): CC(C)S(=O)(=O)N1CC(Oc2ccc(-c3noc(-c4ccncc4)n3)cc2)C1
- CC50: 19.7 µM (inactive)

Structure (SMILES): COc1ccc(Cc2nccc3cc(OC)c(OC)cc23)cc1OC [PAPAVERINE]
- CC50: 12.8 µM (active)

Structure (SMILES): Cc1cc(OCC(=O)Nc2nc(-c3ccccn3)cs2)no1
- CC50: 8.8 µM (active)

Structure (SMILES): O[C@@H](CNCc1cc2ccccc2nc1N1CCCCC1)CN1CCCC1
- CC50: 9.8 µM (active)

Structure (SMILES): CCNC(=O)C#Cc1ccc2c(c1)NC(=O)/C2=C(\Nc1ccc(CN(C)C)cc1)c1ccccc1
- CC50: < 0.1 µM (active)

Structure (SMILES): COc1ccc(CNC(=O)C2CCN(S(=O)(=O)c3ccc4c(c3)CC(C)N4C(C)=O)CC2)cc1 (configuration not stated)
- CC50: 29.7 µM (inactive)

Structure (SMILES): O=C(Nc1cccc2cccnc12)c1cn2ccccc2n1
- CC50: < 0.1 µM (active)

Structure (SMILES): N#Cc1ccc(CN2CCN(C(=O)c3ccc(-n4cccn4)cc3)CC2)cc1
- CC50: 8.6 µM (active)

Structure (SMILES): CN(C)C/C=C/C(=O)Nc1ccc(C(=O)Nc2cccc(Nc3ncc(Cl)c(-c4c[nH]c5ccccc45)n3)c2)cc1
- CC50: < 0.1 µM (active)

Structure (SMILES): Cc1[nH]c(C(=O)Nc2ccc(C#N)cc2)c(C)c1S(=O)(=O)N1CCCC1
- CC50: 17.9 µM (inactive)

Structure (SMILES): CCC1CN(Cc2ccccc2OCc2cccc(OC)c2)CCN1C (configuration not stated)
- CC50: 17.8 µM (inactive)

Structure (SMILES): CCC(C)NC(=O)N1CC(Oc2ccc(-c3noc(C4CCOCC4)n3)cc2)C1 (configuration not stated)
- CC50: 4.8 µM (active)

Structure (SMILES): O=C(Nc1ccc([N+](=O)[O-])cc1Cl)c1cc(Cl)ccc1O [NICLOSAMIDE]
- CC50: 0.7 µM (active)

Structure (SMILES): COc1ccc(C)cc1NC(=O)N1CCC(n2cnc3cc(F)ccc3c2=O)CC1
- CC50: 9.9 µM (active)

Structure (SMILES): Oc1ccccc1N1CCN(C[C@H](O)COc2ccc(Oc3ccccc3)cc2)CC1
- CC50: 19.2 µM (inactive)

Structure (SMILES): CS(=O)(=O)c1ncc(Cl)c(C(=O)Nc2ccc(Cl)cc2)n1
- CC50: 4.1 µM (active)

Structure (SMILES): Cc1cccc(N2CCN(C(=O)C3CCCN(S(=O)(=O)c4ccc5c(c4)oc(=O)n5C)C3)CC2)c1C (configuration not stated)
- CC50: 6.1 µM (active)

Structure (SMILES): CCCN1CCN(CCCNC(=O)C2CCN(c3nc(-c4ccc(OC)cc4)no3)CC2)CC1
- CC50: 13 µM (active)

Structure (SMILES): CN(c1ccc(C(=O)Nc2ccc(S(=O)(=O)N3CCOCC3)cc2)cc1)S(=O)(=O)c1ccccc1
- CC50: 2.9 µM (active)

Structure (SMILES): CO[C@H]1C[C@@H]2CC[C@@H](C)[C@@](O)(O2)C(=O)C(=O)N2CCCC[C@H]2C(=O)O[C@H]([C@H](C)C[C@@H]2CC[C@@H](O)[C@H](OC)C2)CC(=O)[C@H](C)/C=C(\C)[C@@H](O)[C@@H](OC)C(=O)[C@H](C)C[C@H](C)/C=C/C=C/C=C/1C [SIROLIMUS]
- CC50: 17.5 µM (inactive)

Structure (SMILES): CCN1CCN(Cc2ccc(C(=O)Nc3ccc(C)c(Oc4ccc5c(c4)CC(=O)N5)c3)cc2C(F)(F)F)CC1
- CC50: 6.2 µM (active)

Structure (SMILES): O=C(Nc1cccnc1)c1ccc(Cn2nc(N3CCN(c4ccccc4)CC3)ccc2=O)o1
- CC50: 5.7 µM (active)

Structure (SMILES): COc1ccc2c(c1)C(C(=O)N(Cc1ccc(N(C)C)cc1)c1ccc(C(C)C)cc1)CCC2 (configuration not stated)
- CC50: 23.2 µM (inactive)

Structure (SMILES): CCN(CC)C(=O)N1CC(Oc2ccc(-c3noc(C4CCOCC4)n3)cc2)C1
- CC50: 2.3 µM (active)

Structure (SMILES): O=C(O)c1ccc2c3c1cccc3c(=O)n1c3ccccc3nc21
- CC50: 3.3 µM (active)

Structure (SMILES): CCn1c(-c2nonc2N)nc2cnc(Oc3cccc(NC(=O)c4ccc(OCCN5CCOCC5)cc4)c3)cc21 [GSK-269962A]
- CC50: 3 µM (active)
